Laboratory results as given in US20260027116A1, “Methods of Treating Chronic Graft-Versus-Host Disease Following Allogeneic Hematopoietic Stem Cell Transplantation” (Kadmon Corporation, LLC, priority 2022, published 2026).

System: chronic graft-versus-host disease (cGVHD)
Experiment: Example 2 phase II randomized study: response per 2014 NIH criteria (best ORR, DOR, TTR, FFS, OS)
Format: in vivo, human
Conditions: for ORR / ORR for responses occurring within 6 mo of treatment / ORR for responses occurring within 12 mo of treatment: mITT
Description: All responses were assessed by the study site investigators.
Here, we report data from the 12-month analysis.

[1] = responses within 6 mo of treatment, 200 mg daily (n = 66)
[2] = responses within 6 mo of treatment, 200 mg twice daily (n = 66)
[3] = responses within 6 mo of treatment, Total (N = 132)
[4] = responses within 12 mo of treatment, 200 mg daily (n = 66)
[5] = responses within 12 mo of treatment, 200 mg twice daily (n = 66)
[6] = responses within 12 mo of treatment, Total (N = 132)

CC(C)NC(=O)COc1cccc(-c2nc(Nc3ccc4[nH]ncc4c3)c3ccccc3n2)c1 [Belumosudil, 2-{3-[4-(1H-indazol-5-ylamino)-2-quinazolinyl]phenoxy}-N-(propan-2-yl) acetamide]
CR, Esophagus (200 mg BID): 5 (42) n (%)
CR, Eyes (200 mg BID): 6 (12) n (%)
CR, Joints and fascia (200 mg BID): 10 (20) n (%)
CR, Liver (200 mg BID): 2 (50) n (%)
CR, Lower GI (200 mg BID): 4 (57) n (%)
CR, Lungs (200 mg BID): 2 (9) n (%)
CR, Mouth (200 mg BID): 17 (41) n (%)
CR, Skin (200 mg BID): 10 (18) n (%)
CR, Upper GI (200 mg BID): 4 (40) n (%)
ORR, Esophagus (200 mg BID): 5 (42) n (%)
ORR, Eyes (200 mg BID): 25 (51) n (%)
ORR, Joints and fascia (200 mg BID): 33 (67) n (%)
ORR, Liver (200 mg BID): 2 (50) n (%)
ORR, Lower GI (200 mg BID): 5 (71) n (%)
ORR, Lungs (200 mg BID): 5 (22) n (%)
ORR, Mouth (200 mg BID): 24 (57) n (%)
ORR, Skin (200 mg BID): 23 (42) n (%)
ORR, Upper GI (200 mg BID): 4 (40) n (%)
PR, Esophagus (200 mg BID): 0 n (%)
PR, Eyes (200 mg BID): 19 (39) n (%)
PR, Joints and fascia (200 mg BID): 23 (47) n (%)
PR, Liver (200 mg BID): 0 n (%)
PR, Lower GI (200 mg BID): 1 (14) n (%)
PR, Lungs (200 mg BID): 3 (13) n (%)
PR, Mouth (200 mg BID): 7 (17) n (%)
PR, Skin (200 mg BID): 13 (24) n (%)
PR, Upper GI (200 mg BID): 0 n (%)
CR, Esophagus (200 mg QD): 9 (47) n (%)
CR, Eyes (200 mg QD): 8 (17) n (%)
CR, Joints and fascia (200 mg QD): 10 (20) n (%)
CR, Liver (200 mg QD): 2 (22) n (%)
CR, Lower GI (200 mg QD): 4 (67) n (%)
CR, Lungs (200 mg QD): 4 (17) n (%)
CR, Mouth (200 mg QD): 15 (50) n (%)
CR, Skin (200 mg QD): 8 (15) n (%)
CR, Upper GI (200 mg QD): 7 (54) n (%)
ORR, Esophagus (200 mg QD): 9 (47) n (%)
ORR, Eyes (200 mg QD): 16 (33) n (%)
ORR, Joints and fascia (200 mg QD): 38 (75) n (%)
ORR, Liver (200 mg QD): 3 (33) n (%)
ORR, Lower GI (200 mg QD): 4 (67) n (%)
ORR, Lungs (200 mg QD): 7 (29) n (%)
ORR, Mouth (200 mg QD): 16 (53) n (%)
ORR, Skin (200 mg QD): 18 (33) n (%)
ORR, Upper GI (200 mg QD): 8 (62) n (%)
PR, Esophagus (200 mg QD): 0 n (%)
PR, Eyes (200 mg QD): 8 (17) n (%)
PR, Joints and fascia (200 mg QD): 28 (55) n (%)
PR, Liver (200 mg QD): 1 (11) n (%)
PR, Lower GI (200 mg QD): 0 n (%)
PR, Lungs (200 mg QD): 3 (13) n (%)
PR, Mouth (200 mg QD): 1 (3) n (%)
PR, Skin (200 mg QD): 10 (18) n (%)
PR, Upper GI (200 mg QD): 1 (8) n (%)
FFS at 6 mo (95% CI) (200 mg daily (n = 66)): 73 (61-83) %
FFS at 12 mo (95% CI) (200 mg daily (n = 66)): 57 (44-68) %
FFS at 6 mo (95% CI) (200 mg twice daily (n = 66)): 76 (63-84) %
FFS at 12 mo (95% CI) (200 mg twice daily (n = 66)): 56 (43-67) %
2-year OS rate (Example 2): 89%
additional lung CRs based on NIH lung symptom score 1 to 0 (Example 2): 3 subjects
best ORR in subjects refractory to their last lines of therapy (Example 2): 75%
initiation of a new systemic cGVHD therapy (failure event) (Example 2): 38%
lung CR based on normalization of FEV1 (Example 2): 3 subjects
median FEV1 increase for all subjects achieving lung PR (Example 2): 10%
median FEV1 increase in lung CR subjects (Example 2): 23%
nonrelapse mortality (NRM) (Example 2): 7%
overall median time to response (Example 2): 5 weeks
relapse (Example 2): 3%
responses seen after 6 to 12 months of treatment (Example 2): 9%
skin responders with decrease in body surface area involvement (Example 2): 15 subjects
skin responders with decrease in sclerotic features (Example 2): 11 subjects
skin responders with improvement in both body surface area and sclerotic features (Example 2): 13 subjects
subjects with lung responses (Example 2): 12 subjects
subjects with skin responses (Example 2): 41 subjects
best ORR (Example 2, 200 mg daily): 74%
best ORR (Example 2, 200 mg twice daily): 77%
overall FFS rate (Example 2, at 6 months): 75%
overall FFS rate (Example 2, at 12 months): 56%
ORRs in all subgroups (Example 2, mITT): 61-85%
best ORR in the esophagus (Example 2, mITT): 45%
best ORR in the eyes (Example 2, mITT): 42%
best ORR in the joints/fascia (Example 2, mITT): 71%
best ORR in the liver (Example 2, mITT): 39%
best ORR in the lower GI tract (Example 2, mITT): 69%
best ORR in the lungs (Example 2, mITT): 26%
best ORR in the mouth (Example 2, mITT): 55%
best ORR in the skin (Example 2, mITT): 37%
best ORR in the upper GI tract (Example 2, mITT): 52%
ORR, subgroup with prior ibrutinib therapy (Example 2, pooled arms): 74%
ORR, subgroup with prior ruxolitinib therapy (Example 2, pooled arms): 68%
median DOR (Example 2, responder population): 54 weeks
CR, Esophagus (Total): 14 (45) n (%)
CR, Eyes (Total): 14 (14) n (%)
CR, Joints and fascia (Total): 20 (20) n (%)
CR, Liver (Total): 4 (31) n (%)
CR, Lower GI (Total): 8 (62) n (%)
CR, Lungs (Total): 6 (13) n (%)
CR, Mouth (Total): 32 (44) n (%)
CR, Skin (Total): 18 (16) n (%)
CR, Upper GI (Total): 11 (48) n (%)
ORR, Esophagus (Total): 14 (45) n (%)
ORR, Eyes (Total): 41 (42) n (%)
ORR, Joints and fascia (Total): 71 (71) n (%)
ORR, Liver (Total): 5 (39) n (%)
ORR, Lower GI (Total): 9 (69) n (%)
ORR, Lungs (Total): 12 (26) n (%)
ORR, Mouth (Total): 40 (56) n (%)
ORR, Skin (Total): 41 (37) n (%)
ORR, Upper GI (Total): 12 (52) n (%)
PR, Esophagus (Total): 0 n (%)
PR, Eyes (Total): 27 (28) n (%)
PR, Joints and fascia (Total): 51 (51) n (%)
PR, Liver (Total): 1 (8) n (%)
PR, Lower GI (Total): 1 (8) n (%)
PR, Lungs (Total): 6 (13) n (%)
PR, Mouth (Total): 8 (11) n (%)
PR, Skin (Total): 23 (21) n (%)
PR, Upper GI (Total): 1 (4) n (%)
FFS at 6 mo (95% CI) (Total (N = 132)): 75 (66-81) %
FFS at 12 mo (95% CI) (Total (N = 132)): 56 (47-64) %
ORR (200 mg daily (n = 66)): 49 (74) n (%)
ORR for responses occurring within 6 mo of treatment (200 mg daily (n = 66)): 47 (71) n (%)
ORR for responses occurring within 12 mo of treatment (200 mg daily (n = 66)): 49 (74) n (%)
ORR (200 mg twice daily (n = 66)): 51 (77) n (%)
ORR for responses occurring within 6 mo of treatment (200 mg twice daily (n = 66)): 48 (73) n (%)
ORR for responses occurring within 12 mo of treatment (200 mg twice daily (n = 66)): 50 (76) n (%)
ORR (Total (N = 132)): 100 (76) n (%)
ORR for responses occurring within 6 mo of treatment (Total (N = 132)): 95 (72) n (%)
ORR for responses occurring within 12 mo of treatment (Total (N = 132)): 99 (75) n (%)
CR [1]: 2 (3) n (%)
PR [1]: 45 (68) n (%)
CR [2]: 1 (2) n (%)
PR [2]: 47 (71) n (%)
CR [3]: 3 (2) n (%)
PR [3]: 92 (70) n (%)
CR [4]: 4 (6) n (%)
PR [4]: 45 (68) n (%)
CR [5]: 2 (3) n (%)
PR [5]: 48 (73) n (%)
CR [6]: 6 (5) n (%)
PR [6]: 93 (71) n (%)
